Reference: ChEMBL document CHEMBL1157938, “Cytotoxicity and inhibition of DNA topoisomerase I of polyhydroxylated triterpenoids and triterpenoid glycosides” (Bioorg Med Chem Lett, 2010)

Tests used:
[1] = Inhibition of Leishmania donovani DNA topoisomerase 1 preincubated before addition of DNA
DNA topoisomerase 1 [2] = biological target: T1, DNA topoisomerase 1 (Rattus norvegicus, UniProt Q9WUL0); assay: Inhibition of rat liver DNA topoisomerase 1 treated simultaneously with DNA
T1 sequence (Q9WUL0 whole entry): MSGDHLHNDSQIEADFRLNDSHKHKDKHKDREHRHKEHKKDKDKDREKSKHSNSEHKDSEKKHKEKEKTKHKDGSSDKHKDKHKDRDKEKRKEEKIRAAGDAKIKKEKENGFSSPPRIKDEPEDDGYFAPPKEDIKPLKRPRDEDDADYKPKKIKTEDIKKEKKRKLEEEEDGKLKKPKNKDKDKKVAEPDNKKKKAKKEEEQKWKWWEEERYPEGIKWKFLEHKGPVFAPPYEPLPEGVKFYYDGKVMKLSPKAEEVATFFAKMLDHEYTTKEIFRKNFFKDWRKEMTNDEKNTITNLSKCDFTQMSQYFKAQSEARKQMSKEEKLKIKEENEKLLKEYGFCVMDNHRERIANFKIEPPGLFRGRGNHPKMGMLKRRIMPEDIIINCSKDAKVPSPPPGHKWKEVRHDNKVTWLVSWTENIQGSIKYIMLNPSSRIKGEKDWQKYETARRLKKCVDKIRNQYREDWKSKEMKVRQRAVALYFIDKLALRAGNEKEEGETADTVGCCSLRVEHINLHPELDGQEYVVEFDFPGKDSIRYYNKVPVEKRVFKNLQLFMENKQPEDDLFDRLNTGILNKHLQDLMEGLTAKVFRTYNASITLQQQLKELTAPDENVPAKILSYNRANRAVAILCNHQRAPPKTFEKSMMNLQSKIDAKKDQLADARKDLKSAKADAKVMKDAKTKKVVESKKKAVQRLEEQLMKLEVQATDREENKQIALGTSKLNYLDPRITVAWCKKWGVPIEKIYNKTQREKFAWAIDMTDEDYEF

[3] = Inhibition of Leishmania donovani DNA topoisomerase 1 treated simultaneously with DNA
DNA topoisomerase 1 [4] = biological target: T1, DNA topoisomerase 1; assay: Inhibition of rat liver DNA topoisomerase 1 preincubated before addition of DNA

O=c1cc(-c2ccc(O)c(O)c2)oc2cc(O)cc(O)c12 [LUTEOLIN]
IC50 [1]: 2.5 µM
IC50 (DNA topoisomerase 1 [2]): 5 µM
IC50 [3]: 14 µM
IC50 (DNA topoisomerase 1 [4]): 0.66 µM
